# Earlier results as cited in PMC3461233 (Angewandte Chemie (International ed. in English), 2012).
substance,measurement,value
Arg9,spontaneous translocation across synthetic membranes,does not translocate spontaneously
